# Experimental data: ChEMBL document CHEMBL3044779, “The action of herbicides on fatty acid biosynthesis and elongation in barley and cucumber” (Pest Manag Sci, 2010)
# Calls of active or inactive are those of the source. The rule behind the calls is not given here.
# What was measured:
# Cucumis sativus [1] = assay: Inhibition of fatty acid synthesis in Cucumis sativus (cucumber) using [14C]malonate assessed as [14C]-labeled 20C fatty acid level at 300 uM after 3 hr by liquid scintillation counting (reference value: 11.7 +/- 2%); assay type: functional; parameters: scale not given: the % may be the effect or the level left
# Hordeum vulgare [2] = assay: Inhibition of fatty acid synthesis in Hordeum vulgare (barley) using [14C]malonate assessed as [14C]-labeled 24C fatty acid level at 300 uM after 3 hr by liquid scintillation counting (reference value: 16.2 +/- 1.1 %); assay type: functional; parameters: scale not given: the % may be the effect or the level left
# Hordeum vulgare [3] = assay: Inhibition of fatty acid synthesis in Hordeum vulgare (barley) using [14C]malonate assessed as [14C]-labeled 18C fatty acid level at 300 uM after 3 hr by liquid scintillation counting (reference value: 12.5 +/- 3.9 %); assay type: functional; parameters: scale not given: the % may be the effect or the level left
# Cucumis sativus [4] = assay: Inhibition of fatty acid synthesis in Cucumis sativus (cucumber) using [14C]malonate assessed as [14C]-labeled 18C fatty acid level at 300 uM after 3 hr by liquid scintillation counting (reference value: 14.3 +/- 2%); assay type: functional; parameters: scale not given: the % may be the effect or the level left
# Hordeum vulgare [5] = assay: Inhibition of fatty acid synthesis in Hordeum vulgare (barley) assessed as inhibition of [14C]acetate incoporation in total fatty acids at 300 uM measured as total disintegration per g of fresh weight after 3 hr by liquid scintillation counting (reference value: 5.8 +/- 1.6 dpm x 10^6 g'1 fresh wt); assay type: functional
# Hordeum vulgare [6] = assay: Inhibition of fatty acid synthesis in Hordeum vulgare (barley) using [14C]acetate assessed as [14C]-labeled 18C fatty acid level at 300 uM after 3 hr by liquid scintillation counting (reference value: 57 +/- 0.9%); assay type: functional; parameters: scale not given: the % may be the effect or the level left
# Cucumis sativus [7] = assay: Inhibition of fatty acid synthesis in Cucumis sativus (cucumber) using [14C]acetate assessed as [14C]-labeled 16C fatty acid level at 300 uM after 3 hr by liquid scintillation counting (reference value: 27.6 +/- 5.1%); assay type: functional; parameters: scale not given: the % may be the effect or the level left
# Cucumis sativus [8] = assay: Inhibition of fatty acid synthesis in Cucumis sativus (cucumber) using [14C]acetate assessed as reduction in [14C]-labeled 20C fatty acid level at 300 uM after 3 hr by liquid scintillation counting relative to control; assay type: functional, organism-based
# Hordeum vulgare [9] = assay: Inhibition of fatty acid synthesis in Hordeum vulgare (barley) assessed as inhibition of [14C]malonate incoporation in total fatty acids at 300 uM measured as total disintegration per g of fresh weight after 3 hr by liquid scintillation counting (reference value: 9.4 +/- 2.5 dpm x 10^6 g'1 fresh wt); assay type: functional
# Cucumis sativus [10] = assay: Inhibition of fatty acid synthesis in Cucumis sativus (cucumber) using [14C]acetate assessed as [14C]-labeled 18C fatty acid level at 300 uM after 3 hr by liquid scintillation counting (reference value: 33.5 +/- 1.5%); assay type: functional; parameters: scale not given: the % may be the effect or the level left
# Hordeum vulgare [11] = assay: Inhibition of fatty acid synthesis in Hordeum vulgare (barley) using [14C]acetate assessed as reduction in [14C]-labeled 20C fatty acid level at 300 uM after 3 hr by liquid scintillation counting; assay type: functional, organism-based
# Cucumis sativus [12] = assay: Inhibition of fatty acid synthesis in Cucumis sativus (cucumber) using [14C]malonate assessed as [14C]-labeled 24C fatty acid level at 300 uM after 3 hr by liquid scintillation counting (reference value: 26.4 +/- 5.5%); assay type: functional; parameters: scale not given: the % may be the effect or the level left
# Hordeum vulgare [13] = assay: Inhibition of fatty acid synthesis in Hordeum vulgare (barley) using [14C]acetate assessed as reduction in [14C]-labeled 22C fatty acid level at 300 uM after 3 hr by liquid scintillation counting; assay type: functional, organism-based
# Cucumis sativus [14] = assay: (§1) Inhibition of fatty acid synthesis in Cucumis sativus (cucumber) assessed as inhibition of [14C]acetate incoporation in total fatty acids at 300 uM measured as total disintegration per g of fresh weight after 3 hr by liquid scintillation counting (reference value: 4.4 +/- 1 dpm x 10^6 g'1 fresh wt); assay type: functional
# Cucumis sativus [15] = assay: Inhibition of fatty acid synthesis in Cucumis sativus (cucumber) using [14C]malonate assessed as [14C]-labeled 22C fatty acid level at 300 uM after 3 hr by liquid scintillation counting (reference value: 42.5 +/- 0.6%); assay type: functional; parameters: scale not given: the % may be the effect or the level left
# Hordeum vulgare [16] = assay: Inhibition of fatty acid synthesis in Hordeum vulgare (barley) using [14C]malonate assessed as [14C]-labeled 20C fatty acid level at 300 uM after 3 hr by liquid scintillation counting (reference value: 6.5 +/- 3.1 %); assay type: functional; parameters: scale not given: the % may be the effect or the level left
# Cucumis sativus [17] = assay: as §1, with “of [14C]malonate” for “of [14C]acetate”, “value: 16.3” for “value: 4.4”, “+/- 1.1” for “+/- 1”; assay type: functional
# Hordeum vulgare [18] = assay: Inhibition of fatty acid synthesis in Hordeum vulgare (barley) using [14C]malonate assessed as [14C]-labeled 16C fatty acid level at 300 uM after 3 hr by liquid scintillation counting (reference value: 8.1 %); assay type: functional; parameters: scale not given: the % may be the effect or the level left
# Hordeum vulgare [19] = assay: Inhibition of fatty acid synthesis in Hordeum vulgare (barley) using [14C]malonate assessed as [14C]-labeled 22C fatty acid level at 300 uM after 3 hr by liquid scintillation counting (reference value: 32.8 +/- 2.3%); assay type: functional; parameters: scale not given: the % may be the effect or the level left
# Cucumis sativus [20] = assay: Inhibition of fatty acid synthesis in Cucumis sativus (cucumber) using [14C]malonate assessed as [14C]-labeled 16C fatty acid level at 300 uM after 3 hr by liquid scintillation counting (reference value: 5.1 +/- 0.9%); assay type: functional; parameters: scale not given: the % may be the effect or the level left
# Hordeum vulgare [21] = assay: Inhibition of fatty acid synthesis in Hordeum vulgare (barley) using [14C]acetate assessed as reduction in [14C]-labeled 24C fatty acid level at 300 uM after 3 hr by liquid scintillation counting; assay type: functional, organism-based
# Hordeum vulgare [22] = assay: Inhibition of fatty acid synthesis in Hordeum vulgare (barley) using [14C]acetate assessed as [14C]-labeled 16C fatty acid level at 300 uM after 3 hr by liquid scintillation counting (reference value: 30.6 +/- 0.2%); assay type: functional; parameters: scale not given: the % may be the effect or the level left
structure (smiles),measurement,setting,value
COCCN(C(=O)CCl)c1c(C)cccc1C [DIMETHACHLOR],Activity,Cucumis sativus [1],11.2%
same,Activity,Hordeum vulgare [2],5.8%
same,Activity,Hordeum vulgare [3],7.3%
same,Activity,Cucumis sativus [4],46.8%
same,Activity,Hordeum vulgare [5],5.9 ×10⁶ dpm
same,Activity,Hordeum vulgare [6],63.9%
same,Activity,Cucumis sativus [7],36.2%
same,inhibition,Cucumis sativus [8],Active
same,Activity,Hordeum vulgare [9],6.8 ×10⁶ dpm
same,Activity,Cucumis sativus [10],63.9%
same,inhibition,Hordeum vulgare [11],Active
same,Activity,Cucumis sativus [12],9.3%
same,inhibition,Hordeum vulgare [13],Active
same,Activity,Cucumis sativus [14],2.9 ×10⁶ dpm
same,Activity,Cucumis sativus [15],12.5%
same,Activity,Hordeum vulgare [16],8.5%
same,Activity,Cucumis sativus [17],9.4 ×10⁶ dpm
same,Activity,Hordeum vulgare [18],14%
same,Activity,Hordeum vulgare [19],18.1%
same,Activity,Cucumis sativus [20],20.4%
same,inhibition,Hordeum vulgare [21],Active
same,Activity,Hordeum vulgare [22],36.1%
